Assay results published in patent US12441725B2, “ISO-citrate dehydrogenase (IDH) inhibitor” (ZHEJIANG METON PHARMACEUTICAL CO., LTD, priority 2019, dated 2025).

What was measured:
[1] = target: T1, IDH1 R132H (Homo sapiens, UniProt O75874, R132H); test: Biochemical assay for IDH inhibition (NADPH fluorescence), mutant IDH1 R132H; conditions: 50 nM IDH1-R132H, 1 hour pre-incubation, in triplet
T1 construct: 6xHis
Excerpt: (§1) The present disclosure provides a biochemical assay method for detecting the IDH inhibition and selectivity of the compounds by detecting IDH enzyme activity directly.
(§2) Wild-type IDH enzymes convert NADP^+ to NADPH when catalyzing the α-KG producing reaction. Mutant IDH enzymes convert NADPH to NADP^+ when catalyzing the D-2-HG producing reaction. So, the activity of wild-type and mutant IDH1/2 could be measured by monitoring NADPH level change as NADPH is fluorescent (Excitation 340 nm, Emission 460 nm). By monitoring the change of NADPH level in the reaction, the enzyme activity could be determined rapidly and efficiently and IC50 of a compound could also be assayed.
(§3) The test compounds are prepared into 50 mM stock solutions in DMSO and stored at −20° C. Each test compound stock is further diluted to obtain a 100× stock solution at a concentration of 400 μM, 200 μM, 100 μM, 50 μM, 25 μM, 12.5 μM, 6.25 μM and 3.125 μM, respectively, for the final use on the day of test (the concentration range of 100× stock solutions might be adjusted to cover the estimated IC50 of a specific test compound).
(§4) Inhibition of Mutant IDH1 (R132H or R132C):
(§5) To assay the enzymatic activity of mutant IDH1 proteins, 25 nM IDH1-R132C or 50 nM IDH1-R132H protein solutions are prepared in 20 mM Tris-HCl pH7.5, 150 mM NaCl, 10 mM MgCl2, 1 mM DTT, 0.05 mg/ml BSA and 1.33 mM α-KG. 148 μL 25 nM IDH1-R132C or 50 nM IDH1-R132H protein solutions are mixed with 2 μL DMSO (vehicle control for test compounds) or an above-mentioned 100× stock solution of a test compound and incubated for 1 hour at room temperature. Extra reactions containing 148 μL no-enzyme solution (20 mM Tris-HCl pH7.5, 150 mM NaCl, 10 mM MgCl2, 1 mM DTT, 0.05 mg/ml BSA and 1.33 mM α-KG) and 2 μL DMSO are also set up as background controls. Then each reaction is initiated by adding 50 μL 80 μM NADPH solution prepared in 20 mM Tris-HCl pH7.5, 150 mM NaCl, 10 mM MgCl2, 1 mM DTT and 0.05 mg/ml BSA. BioTek Synergy H1 Microplate reader (BioTek Instruments Inc., Winooski, U.S.) is employed to monitor the NADPH fluorescence (Excitation 340 nm, Emission 460 nm) every 42 seconds for 15 minutes. NADPH change rate is determined according to the linear phase of the fluorescence-time curve and results from the background control reactions are used as background subtraction to calculate the net NADPH change rates of other reactions. The net NADPH change rates from the vehicle control reactions are used as 100% enzymatic activity and thus the relative enzymatic activity of reactions with test compounds added could be determined. Then a dose-response curve is drawn for each test compound and the corresponding IC50 is calculated. The IC50 value is used to evaluate the inhibition and selectivity of each test compound on the IDH enzymatic activity.
(§6) The IDH inhibition activity of the compounds were assessed according to Test 2 of the Biological Assay section. The test for mutant IDH1 R132H and IDH1 R132C inhibition of each compound was carried out in triplet. As used in Table 5, “A” refers to an inhibitory activity against IDH1 R132H or IDH1 R132C with an IC50<0.1 μM; “B” refers to an inhibitory activity against IDH1 R132H or IDH1 R132C with an IC50 from 0.1 μM to 0.5 μM; “C” refers to an inhibitory activity against IDH1 R132H or IDH1 R132C with an IC50 from 0.5 μM to 1 μM; “D” refers to an inhibitory activity against IDH1 R132H or IDH1 R132C with an IC50>1 μM.

[2] = target: T2, IDH1 R132C (Homo sapiens, UniProt O75874, R132C); test: Biochemical assay for IDH inhibition (NADPH fluorescence), mutant IDH1 R132C; conditions: 25 nM IDH1-R132C, 1 hour pre-incubation, in triplet
T2 construct: 6xHis
Excerpt: as §1, §2, §3, §4, §5, §6

[3] = target: T3, IDH (endogenous IDH1 R132C) in HT1080 cell (Homo sapiens, UniProt O75874, R132C); test: Cell-based assay for IDH inhibition (decrease of D-2-HG) in HT1080 cells; conditions: human fibrosarcoma cell line HT1080, 16 hours treatment, D-2-HG by LC-MS, in triplet
T3 construct: which harbor endogenous heterozygous IDH1 R132C and R132H mutation respectively and accumulate D-2-HG
Excerpt: The present disclosure also provides a cell-based method for assaying IDH inhibition and selectivity of the compounds in human fibrosarcoma cell line HT1080 and cholangiocarcinoma cell line HCCC 9810, which harbor endogenous heterozygous IDH1 R132C and R132H mutation respectively and accumulate D-2-HG. Tumor -derived IDH mutant lost its normal activity of producing α-KG, and gained a new activity of producing D-2-HG. D-2-HG is a metabolite specifically elevated in tumor cells expressing mutant IDH1 or IDH2 proteins. When treating such mutant IDH-expressing tumor cells with an effective IDH inhibitor, the synthesis of D-2-HG is blocked, and D-2-HG concentration is decreased by the oxidation reaction catalyzed by the endogenous D-2-HG dehydrogenase.
To perform a cell-based IDH inhibition assay, HT1080 and HCCC 9810 cells (or other cell lines harboring different IDH mutations) are cultured in DMEM supplemented with 10% FBS. The cells are treated with compounds of present disclosure at various different concentrations. 16 hours after the treatment, culture medium supernatants are removed and cell metabolites are extracted by 40% methanol and 40% acetonitrile in water (pre-chilled under −80° C.) at 4° C. for 1 hour. The extract supernatants are collected and cell debris are removed via high speed centrifugation. The resulting metabolite extracts are analyzed on an Agilent LC-MS system (model: 1290-6470) for 2-HG and glutamate concentration. A HILIC-Z column (2.1 mm×100 mm, […]) is employed on HPLC. Mobile phase A is 15 mM CH3COONH4 and 0.3% NH3·H2O in water. Mobile phase B is 15 mM CH3COONH4 and 0.3% NH3·H2O in 90% MeCN/10% H2O solvent. An 19% solvent A and 81% solvent B isocratic gradient method is used at a flow rate of 0.3 ml/min. D-2-HG is ionized under negative ion spray mode and detected through the multiple-reaction monitoring of a mass transition pair at m/z=147.0/128.9 and 147.0/85.1. Glutamate is ionized under ion spray mode and detected on negative polarity multiple-reaction monitoring of a mass transition pair at m/z=146/102 and 146/128 and its level is used to normalize 2-HG concentration. The activity of cellular mutant IDH proteins in the presence of each test compound at different concentrations can be represented by relative D-2-HG concentration to negative control samples (i.e., cells are treated with DMSO only), and the IC50 value could be determined to evaluate the inhibition and selectivity of each test compound on the IDH enzymatic activity.
The IDH inhibition activity of the compounds were assessed in human fibrosarcoma cell line HIT1080 according to Test 3 of the Biological Assay section. The test for IDH inhibition of each compound was carried out in triplet. As used in Table 6, “A” refers to an IDH inhibitory activity with an IC50<0.1 μM; “B” refers to an IDH inhibitory activity with an IC50 from 0.1 μM to 0.5 μM; “C” refers to an IDH inhibitory activity with an IC50 from 0.5 μM to 1 μM; “D” refers to an IDH inhibitory activity with an IC50>1 μM.

T2 sequence (O75874 whole entry R132C): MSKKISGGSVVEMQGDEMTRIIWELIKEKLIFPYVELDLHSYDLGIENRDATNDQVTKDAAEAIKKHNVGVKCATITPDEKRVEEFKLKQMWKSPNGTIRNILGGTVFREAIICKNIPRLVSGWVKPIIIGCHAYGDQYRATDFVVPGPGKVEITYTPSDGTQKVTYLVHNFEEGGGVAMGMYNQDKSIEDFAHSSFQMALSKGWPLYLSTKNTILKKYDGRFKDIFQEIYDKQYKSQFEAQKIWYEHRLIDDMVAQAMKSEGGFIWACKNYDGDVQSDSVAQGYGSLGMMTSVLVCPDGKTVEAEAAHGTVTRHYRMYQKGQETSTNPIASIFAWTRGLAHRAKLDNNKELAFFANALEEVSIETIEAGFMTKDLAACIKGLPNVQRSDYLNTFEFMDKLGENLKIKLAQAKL
T1 sequence (O75874 whole entry R132H): as the sequence (O75874 whole entry R132C) above, with C132H counted along it
T3 sequence (O75874 2-414 R132C): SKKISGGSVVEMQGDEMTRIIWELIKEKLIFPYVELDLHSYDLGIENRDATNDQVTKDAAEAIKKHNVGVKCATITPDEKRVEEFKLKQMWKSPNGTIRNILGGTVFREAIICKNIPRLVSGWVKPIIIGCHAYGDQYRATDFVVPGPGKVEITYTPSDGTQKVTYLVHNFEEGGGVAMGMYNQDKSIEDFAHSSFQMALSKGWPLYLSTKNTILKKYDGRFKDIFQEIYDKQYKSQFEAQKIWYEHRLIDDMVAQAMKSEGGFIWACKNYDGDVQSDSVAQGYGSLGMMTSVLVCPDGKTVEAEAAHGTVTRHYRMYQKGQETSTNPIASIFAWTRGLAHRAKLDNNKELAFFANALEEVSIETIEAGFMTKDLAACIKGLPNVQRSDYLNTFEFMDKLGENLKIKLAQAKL

Compound | IC50 [1] | IC50 [2] | IC50 [3]
CCN1Cc2c(ccnc2N[C@@H](C)c2ccc(Oc3ccc4c(cnn4C)c3)c(F)c2)C1=O [Compound 1, 2-ethyl-4-[[(1S)-1-[3-fluoro-4-(1-methylindazol-5-yl)oxy-phenyl]ethyl]amino]-3H-pyrrolo[3,4-c]pyridin-1-one] | 100 to 500 nM | 100 to 500 nM | 500 to 1000 nM
CCN1Cc2c(ccnc2N[C@@H](C)c2ccc(Oc3cccc4c3ccn4C)c(F)c2)C1=O [Compound 2, (S)-2-ethyl-4-((1-(3-fluoro-4-((1-methyl-1H-indol-4-yl)oxy)phenyl)ethyl)amino)-2,3-dihydro-1H-pyrrolo[3,4-c]pyridin-1-one] | 100 to 500 nM | 100 to 500 nM | 500 to 1000 nM
CCN1Cc2c(ccnc2N[C@@H](C)c2ccc(Oc3ccc4c(ccn4C)c3)c(F)c2)C1=O [Compound 3, (S)-2-ethyl-4-((1-(3-fluoro-4-((1-methyl-1H-indol-5-yl)oxy)phenyl)ethyl)amino)-2,3-dihydro-1H-pyrrolo[3,4-c]pyridin-1-one] | 100 to 500 nM | 100 to 500 nM | 500 to 1000 nM
CCN1Cc2c(ccnc2N[C@@H](C)c2ccc(Oc3cnn(C)c3)c(F)c2)C1=O [Compound 4, (S)-2-ethyl-4-((1-(3-fluoro-4-((1-methyl-1H-pyrazol-4-yl)oxy)phenyl)ethyl)amino)-2,3-dihydro-1H-pyrrolo[3,4-c]pyridin-1-one] | > 1000 nM | > 1000 nM | > 1000 nM
CCN1Cc2c(ccnc2N[C@@H](C)c2ccc(OC3Cc4ccccc4C3)c(F)c2)C1=O [Compound 5, (S)-4-((1-(4-((2,3-dihydro-1H-inden-2-yl)oxy)-3-fluorophenyl)ethyl)amino)-2-ethyl-2,3-dihydro-1H-pyrrolo[3,4-c]pyridin-1-one] | 500 to 1000 nM | 500 to 1000 nM | > 1000 nM
CCN1Cc2c(ccnc2N[C@@H](C)c2ccc(OC3CCc4ccccc43)c(F)c2)C1=O (stereo partly drawn) [Compound 6, 4-(((1S)-1-(4-((2,3-dihydro-1H-inden-1-yl)oxy)-3-fluorophenyl)ethyl)amino)-2-ethyl-2,3-dihydro-1H-pyrrolo[3,4-c]pyridin-1-one] | 500 to 1000 nM | > 1000 nM | > 1000 nM
CCN1Cc2c(ccnc2N[C@@H](C)c2ccc(Oc3ccc(C(C)(C)C)nc3)c(F)c2)C1=O [Compound 7, (S)-4-((1-(4-((6-(tert-butyl)pyridin-3-yl)oxy)-3-fluorophenyl)ethyl)amino)-2-ethyl-2,3-dihydro-1H-pyrrolo[3,4-c]pyridin-1-one] | 100 to 500 nM | > 1000 nM | 500 to 1000 nM

Now from value to molecule:

IC50 [1] | IC50 [2] | IC50 [3] | Compound
> 1000 nM | > 1000 nM | > 1000 nM | CCN1Cc2c(ccnc2N[C@@H](C)c2ccc(Oc3ccc4c(c3)ncn4C)c(F)c2)C1=O [Compound 8, (S)-2-ethyl-4-((1-(3-fluoro-4-((1-methyl-1H-benzo[d]imidazol-5-yl)oxy)phenyl)ethyl)amino)-2,3-dihydro-1H-pyrrolo[3,4-c]pyridin-1-one]
100 to 500 nM | 100 to 500 nM | 100 to 500 nM | CCN1Cc2c(ccnc2N[C@@H](C)c2ccc(Oc3ccc4c(ccn4C(C)C)c3)c(F)c2)C1=O [Compound 9, (S)-2-ethyl-4-((1-(3-fluoro-4-((1-isopropyl-1H-indol-5-yl)oxy)phenyl)ethyl)amino)-2,3-dihydro-1H-pyrrolo[3,4-c]pyridin-1-one]
500 to 1000 nM | > 1000 nM | > 1000 nM | CCN1Cc2c(ccnc2N[C@@H](C)c2ccc(Oc3ccc4c(ccn4CCO)c3)c(F)c2)C1=O [Compound 10, (S)-2-ethyl-4-((1-(3-fluoro-4-((1-(2-hydroxyethyl)-1H-indol-5-yl)oxy)phenyl)ethyl)amino)-2,3-dihydro-1H-pyrrolo[3,4-c]pyridin-1-one]
100 to 500 nM | 100 to 500 nM | > 1000 nM | CCN1Cc2c(ccnc2N[C@@H](C)c2ccc(Oc3ccc4c(c3)cc(C)n4C)c(F)c2)C1=O [Compound 11, (S)-4-((1-(4-((1,2-dimethyl-1H-indol-5-yl)oxy)-3-fluorophenyl)ethyl)amino)-2-ethyl-2,3-dihydro-1H-pyrrolo[3,4-c]pyridin-1-one]
> 1000 nM | > 1000 nM | > 1000 nM | CCN1Cc2c(ccnc2N[C@H](C)c2ccc(Oc3ccccc3)c(F)c2)C1=O [Compound 12, (R)-2-ethyl-4-((1-(3-fluoro-4-phenoxyphenyl)ethyl)amino)-2,3-dihydro-1H-pyrrolo[3,4-c]pyridin-1-one]
> 1000 nM | > 1000 nM | – | CCN1Cc2c(ccnc2N[C@@H](C)c2ccc(Cc3ccnc(C(F)(F)F)c3)c(F)c2)C1=O [Compound 53, (S)-2-ethyl-4-((1-(3-fluoro-4-((2-(trifluoromethyl)pyridin-4-yl)methyl)phenyl)ethyl)amino)-2,3-dihydro-1H-pyrrolo[3,4-c]pyridin-1-one]
